Ends that are not written are not given here. PEG = not defined here
Legend:
[1] = test system: human liver adenocarcinoma cells (SK-HEP-1); test: transwell invasion assay, SK-HEP-1 cells; format: cell-based; conditions: SK-HEP-1 transwell invasion, 10 μM, 24 hours; control group 767 ± 91
Excerpt: (§1) The Transwell chamber system was used in the transwell cell invasion experiment. The chamber has an upper layer and a lower layer, which are separated by an artificial semipermeable membrane in the middle. The upper surface of the semipermeable membrane is coated with a layer of artificial matrigel to simulate extracellular matrix. Cells that have invaded through the matrigel and semi-permeable membrane will attach to the lower surface of the semi-permeable membrane. The invasion ability is evaluated by counting the number of cells on the lower surface of the semi-permeable membrane. The number of cells that have invaded is negatively correlated with the inhibitory effect of the drug on the invasion ability of the tumor cells. Transwell invasion assay was performed as follows: tumor cells were cultured in vitro, cells in logarithmic growth phase were collected, and cell suspension was prepared with fresh serum-free medium at a density of 2-3×10^5 cells/mL. Cells were inoculated, 100 μL/well cell suspension (serum-free medium) in the upper chamber and 600 μL/well complete culture medium in the lower chamber. After incubated in 37° C., 5% CO2 incubator for 4-5 hours, serum-free medium (100 μL/well) was added to the control group, and serum-free medium containing polypeptide or derivative thereof (N1-N54) was added to the upper chamber of the treatment group (100 μL/well), the final concentration of the peptide or derivative thereof in the upper chamber was 10 μM. The cells were incubated continuously for 24 hours, and then fixed with methanol and stained with crystal violet. Images were taken under a microscope and the number of invaded cells was counted with ImageJ.
This example was a transwell cell invasion experiment to evaluate the inhibitory effect of the polypeptide or derivative thereof (N1-N54) on the invasion ability of human liver adenocarcinoma cells (SK-HEP-1). The experimental method was as described in Example 4.

[2] = test system: human pancreatic cancer cells (PANC-1); test: transwell migration assay, PANC-1 cells; format: cell-based; conditions: PANC-1 transwell migration, 10 μM, 24 hours; control group 360 ± 60
Experimental: as §1, with “migration” for “invasion”, “middle.” for “middle. The upper surface of the semipermeable membrane is coated with a layer of artificial matrigel to simulate extracellular matrix.”, “migrated” for “invaded”, “the” for “the matrigel and”
This example was a transwell cell migration experiment to evaluate the inhibitory effect of the polypeptide or derivative thereof (N1-N54) on the migration ability of human pancreatic cancer cells (PANC-1). The experimental method was as described in Example 3.

[3] = test system: human pancreatic cancer cells (PANC-1); test: transwell invasion assay, PANC-1 cells; format: cell-based; conditions: PANC-1 transwell invasion, 10 μM, 24 hours; control group 727 ± 68
Excerpt: as §1
This example was the transwell cell invasion experiment to evaluate the inhibitory effect of the polypeptide or derivative thereof (N1-N54) on the invasion ability of human pancreatic cancer cells (PANC-1). The experimental method was as described in Example 4.

[4] = test system: human liver adenocarcinoma cells (SK-HEP-1); test: transwell migration assay, SK-HEP-1 cells; format: cell-based; conditions: SK-HEP-1 transwell migration, 10 μM, 24 hours; control group 1 782 ± 108, control group 2 768 ± 86
Experimental: as §1, with “migration” for “invasion”, “middle.” for “middle. The upper surface of the semipermeable membrane is coated with a layer of artificial matrigel to simulate extracellular matrix.”, “migrated” for “invaded”, “the” for “the matrigel and”
This example was a transwell cell migration experiment to evaluate the inhibitory effect of the polypeptide or derivative thereof (N1-N54) on the migration ability of human liver adenocarcinoma cells (SK-HEP-1). The experimental method was as described in Example 3.

[5] = test system: human lung cancer cells (A549) subcutaneous xenograft; test: lung cancer subcutaneous xenograft animal model, intravenous injection; format: in vivo, mice (BALB/c-nu/nu); conditions: intravenous 60 mg/kg once every other day, 20 days; for Weight of tumor (g) (mean ± SD): control 2.53 ± 0.17; for Volume of tumor (mm^3) (mean ± SD): control 3373.26 ± 581.44
Experimental: Experimental animals: 4-6 weeks old female immunodeficiency mice (BALB/c-nu/nu, Beijing Vital River Laboratory Animal Technology Co., Ltd.).
Subcutaneous xenograft animal model. The number of cells inoculated subcutaneously vin mice was about 2×10^6/200 μL. When the volume of the subcutaneous tumor was greater than 100 mm^3, the mice were randomly divided into groups and subjected to treatment. When the mass volume of the tumors in model control group reached 2000 mm^3 or the animal dies, the treatment ended. The animals were dissected, the tumors were taken out, and the weight and volume of the tumors were measured. During the period of the entire experiment, the mice were observed and the body weight was measured every other day.
The method used in the efficacy test on the lung cancer subcutaneous xenograft animal model was as described in Example 5. The lung cancer cells were the human lung cancer cells (A549), and the route of administration was intravenous injection. This example involved a total of 3 experiments to evaluate N1-N15, N16-N30, and N31-N54 respectively. The experimental procedure, route of administration, dosage and frequency of administration, and detection method were all consistent in the three experiments. The experimental groups were model control group and polypeptide or derivative thereof treatment groups (N1-N15, N16-N30, or N31-N54). The drug dosage of the N1-N54 treatment groups was 60 mg/kg, and the treatment time was 20 days.

Substance | Number of cells (mean ± SD, P), invaded cells [1] | Number of cells (mean ± SD, P), migrated cells [2] | Number of cells (mean ± SD, P), invaded cells [3] | Number of cells (mean ± SD, P), migrated cells [4] | Weight of tumor (g) (mean ± SD) [5] | Volume of tumor (mm^3) (mean ± SD) [5]
N8: SEQ ID NO: 1 with deletion of positions 15-18 and positions 3, 4 and 11 (YRFLAKENTQD) | 277 ± 38,**** | 133 ± 20,*** | 65 ± 16,**** | 139 ± 13,**** | 1.02 ± 0.21 g | 1359.06 ± 275.17 mm^3
N34: SEQ ID NO: 1 with A15R, addition of one amino acid at the carboxyl terminal, PEG modification at the amino terminal ({PEG}-YRVRFLAKENVTQDREDNC; reading uncertain) | 187 ± 38,**** | 248 ± 19,* | 346 ± 30,*** | 260 ± 32,**** | 1.06 ± 0.15 g | 1472.21 ± 914.38 mm^3
N12: SEQ ID NO: 1 with deletion of position 18 and positions 1-2 (VRFLAKENVTQDAED) | 308 ± 42,*** | 246 ± 14,* | 180 ± 17,**** | 405 ± 49,** | 0.85 ± 0.19 g | 1275.34 ± 221.5 mm^3
N40: SEQ ID NO: 1 with deletion of positions 1-5 and 15-18, PEG at the amino terminal, two amino acids added at the carboxyl terminal ({PEG}-LAKENVTQDRC; reading uncertain) | 123 ± 26,**** | 264 ± 12,* | 273 ± 21,**** | 290 ± 33,**** | 0.98 ± 0.36 g | 997.42 ± 267.79 mm^3
N28: SEQ ID NO: 1 with deletion of positions 1-2 and 18 and PEG modification at the amino terminal ({PEG}-VRFLAKENVTQDAED; reading uncertain) | 214 ± 31,**** | 148 ± 21,*** | 247 ± 15,**** | 51 ± 25,**** | 0.91 ± 0.21 g | 1286.52 ± 344.21 mm^3
N13: SEQ ID NO: 1 with deletion of positions 15-18 and positions 1-5 (LAKENVTQD) | 258 ± 32,**** | 255 ± 24,* | 161 ± 19,**** | 25 ± 12,**** | 0.8 ± 0.17 g | 1320.14 ± 147.22 mm^3
N24: SEQ ID NO: 1 with substitution A7R, deletion of positions 1-2 and of position 18 (VRFLRKENVTQDAED) | 332 ± 30,*** | 239 ± 24,* | 226 ± 18,**** | 265 ± 24,**** | 0.81 ± 0.25 g | 1099.3 ± 512.53 mm^3
N42: SEQ ID NO: 1 with deletion of positions 1-5 and 15-18, PEG at the amino terminal, one amino acid added at the carboxyl terminal ({PEG}-LAKENVTQDR; reading uncertain) | 149 ± 29,**** | 236 ± 14,** | 399 ± 21,*** | 106 ± 17,**** | 0.83 ± 0.31 g | 1149.73 ± 346.36 mm^3
N1: polypeptide with the amino acid sequence set forth in SEQ ID NO: 1 (YRVRFLAKENVTQDAEDN) | 343 ± 38,*** | 245 ± 27,* | 83 ± 26,**** | 87 ± 10,**** | 1.01 ± 0.2 g | 1340.25 ± 319.59 mm^3
N54: SEQ ID NO: 1 with A7R, addition of two amino acids and PEG modification at the carboxyl terminal (YRVRFLRKENVTQDAEDNTC-{PEG}; reading uncertain) | 151 ± 28,**** | 128 ± 19,*** | 231 ± 26,**** | 345 ± 3,**** | 0.89 ± 0.37 g | 1381.65 ± 396.21 mm^3
N3: SEQ ID NO: 1 with deletion of position 18 and PEG modification at the amino terminal ({PEG}-YRVRFLAKENVTQDAED; reading uncertain) | 372 ± 62,*** | 224 ± 28,** | 111 ± 10,**** | 112 ± 10,**** | 0.56 ± 0.16 g | 1511.56 ± 433.12 mm^3
N31: SEQ ID NO: 1 with deletion of positions 3, 4, 11 and 15-18 and PEG modification at the carboxyl terminal (YRFLAKENTQD-{PEG}; reading uncertain) | 269 ± 17,**** | 217 ± 40,** | 365 ± 57,*** | 90 ± 6,**** | 0.62 ± 0.2 g | 1439.74 ± 546.27 mm^3

Reference: patent publication US20220280594A1, “APPLICATION OF POLYPEPTIDE OR DERIVATIVE THEREOF” (CHENGDU HUITAI BIOMEDICINE CO., LTD., priority 2019, published 2022)
